Data as given in patent publication US20170239182A1, “PHARMACEUTICAL FORMULATIONS OF AND METHODS TO PREPARE CHELATING AGENTS FOR EFFICIENT METAL REMOVAL TREATMENT SYSTEMS” (ZONEONE PHARMA, INC., priority 2014, published 2017).
Where a name gives a salt, the structure may show the parent alone.

Key:
[1] = Plasma PK of DFO after IV administration of liposomal DFO or Desferal to mice; format: in vivo, CF-1 female mice; details: 100 mg/kg
Procedure: Liposomes containing egg PC/Chol (3 mol/2 mol, LDFO-1), egg PC/DOPG/Chol (2.7 mol/0.3 mol/2 mol, LDFO-2), and HSPC/Chol (3 mol/2 mol, LDFO-4) containing 500 mM ammonium sulfate were prepared as in Example 1. DFO was remote loaded as in Example 20.
After loading the liposomes were purified by dialysis versus HBS pH 6.5. The liposomes were sterilized by filtration through 0.2 um PES filters and analyzed for drug and lipid content. The liposomal DFO were administered to CF-1 female mice at 100 mg/kg (n=3) and at various times the animals were sacrificed and blood taken.
After processing to plasma, DFO was extracted from plasma by mixing with 6 volumes of methanol containing 0.1% trifluoroacetic acid in an epppendorf tube. The mixtures were vortexed twice for 10 seconds then placed at −80° C. for 1 h. The samples were thawed and centrifuged for 12,000 rpm for 10 min at 4° C. and the supernatant analyzed for DFO by HPLC as described herein. […] By comparison DFO was undetectable beyond 1 h after dosing with Desferal®.

[2] = test system: Iron Overloaded Mouse Model; experiment: Liver iron removal from iron overloaded mouse model (ferrozine assay); format: in vivo, mice; details: IV 100 mg/kg chelator on day 7 and day 10 after iron-dextran 100 mg/kg Fe
Procedure: LDFO formulations were prepared as described in Example 1. Both formulations were composed of HSPC/cholesterol (3/0.5 (mol/mol)). One formulation was prepared using 250 mM ammonium sulfate (LDFO-AS) as the trapping agent and the second formulation was prepared using 250 mM ascorbate phosphate (LDFO-AP) as the trapping agent and all other components and DFO loading procedures of the formulations were identical. Mice were overloaded with a single IV injection of iron-dextran at 100 mg/kg Fe. Overloaded mice were treated with each formulation IV at 100 mg/kg chelator on day 7 and day 10. The mice were sacrificed after the second treatment and the livers were analyzed for iron content using a ferrozine assay (Riemer et al. 2004)

Row | Structure (SMILES) | DFO in plasma ([1]; beyond 1 h after dosing) | initial dose (ID) of DFO retained in the plasma ([1]; IV, 24 h) | mean liver iron content [2]
1 | CC(=O)N(O)CCCCCNC(=O)CCC(=O)N(O)CCCCCNC(=O)CCC(=O)N(O)CCCCCN [Desferal, deferoxamine mesylate] | undetectable | undetectable | 
2 | CC(=O)N(O)CCCCCNC(=O)CCC(=O)N(O)CCCCCNC(=O)CCC(=O)N(O)CCCCCN [free DFO, Deferoxamine] |  |  | 229 mg/kg
